From paper PMC2409936, “Phase I and pharmacokinetic study of XR11576, an oral topoisomerase I and II inhibitor, administered on days 1–5 of a 3-weekly cycle in patients with advanced solid tumours” (British Journal of Cancer, 2004)

Legend:
[1] = tested on: patients with advanced solid tumours; test: Phase I toxicity assessment (NCI-CTC version 2.0), oral XR11576 days 1–5 every 21 days; type: in vivo
Experimental: The total dose prescribed was rounded to the nearest 5 mg. […] Dose escalations between cohorts were based on the prior dose level's toxicity and pharmacological data, allowing a dose escalation up to 100% (which was determined by the worst significant toxicity). […] The stopping dose was defined as the dose level that induced dose-limiting toxicity (DLT) during course 1 in ⩾2/3 or ⩾2/6 patients. Dose-limiting toxicities were defined as grade 4 granulocytopenia for 7 or more days, febrile neutropenia, platelets <25.0 × 10^9 l^−1 and/or nonhaematological toxicity ⩾grade 3. Nausea and vomiting subsequently responding to antiemetic therapy were excluded from DLT. […] If a patient encountered DLT, the dose of XR11576 was decreased by one dose level at re-treatment. […] At the dose recommended for further studies, the number of patients treated could be expanded to 12. Toxicities were evaluated according to the National Cancer Institute Common Toxicity Criteria, version 2.0 (ctep.info.nih.gov/reporting/in dex.html).
Before treatment, a complete medical history was recorded and a physical examination performed. A complete blood count (CBC) including white blood cell differential and serum biochemistry, which involved sodium, potassium, calcium, urea, creatinine, uric acid, total protein, albumin, total bilirubin, alkaline phosphatase, γ-glutamyl transferase, aspartate aminotransferase, alanine aminotransferase, lactate dehydrogenase and glucose, were performed, as were urinalysis, pregnancy test, relevant tumour markers, electrocardiogram and a chest X-ray. […] Weekly evaluations included history, physical examination, toxicity assessment according to the CTC criteria version 2.0, and serum chemistries. Complete blood count was determined twice weekly. Tumour evaluation was performed after every two courses according to the Response Evaluation Criteria in Solid Tumours (RECIST) ([Therasse et al, 2000]). Patients were taken off protocol at the onset of disease progression.

[2] = tested on: human colon and small-cell lung cancer xenografts; parameters: method as in Mistry et al, 2002; Lewis et al, 2003; settings: ref Mistry et al, 2002, Lewis et al, 2003; cited from earlier work
[3] = orally on days 1–5 every 3 weeks

## COc1cccc2c1ccc1nc3cccc(C(=O)N[C@H](C)CN(C)C)c3nc12 [XR11576, 4-methoxy-benzo[a]phenazine-11-carboxylic acid (2-dimethulamino-1-R-methyl-ethyl)-amide]
[1]; 30 mg
  nausea and vomiting, median duration: 2 days
  nausea and vomiting, range of duration: 1 to 5 days
[1]; 30 mg day^−1, all cycles
  Diarrhoea grade 1, worse toxicity per cycle: 1
  Fatigue grade 1, worse toxicity per cycle: 1
  Fatigue grade 2, worse toxicity per cycle: 2
  Nausea grade 1, worse toxicity per cycle: 3
  Nausea grade 2, worse toxicity per cycle: 2
  Vomiting grade 1, worse toxicity per cycle: 3
[1]; 30 mg day^−1, first cycle
  Fatigue grade 1, no. of patients: 1
  Fatigue grade 2, no. of patients: 1
  Nausea grade 1, no. of patients: 2
[1]; 60 mg day^−1, all cycles
  Diarrhoea grade 1, worse toxicity per cycle: 1
  Fatigue grade 1, worse toxicity per cycle: 2
  Fatigue grade 2, worse toxicity per cycle: 2
  Fatigue grade 3, worse toxicity per cycle: 2
  Nausea grade 1, worse toxicity per cycle: 6
  Vomiting grade 1, worse toxicity per cycle: 4
[1]; 60 mg day^−1, first cycle
  Diarrhoea grade 1, no. of patients: 1
  Fatigue grade 1, no. of patients: 1
  Fatigue grade 3, no. of patients: 1
  Nausea grade 1, no. of patients: 3
  Vomiting grade 1, no. of patients: 2
[1]; 120 mg day^−1, all cycles
  Diarrhoea grade 1, worse toxicity per cycle: 3
  Diarrhoea grade 2, worse toxicity per cycle: 3
  Diarrhoea grade 3, worse toxicity per cycle: 1
  Fatigue grade 1, worse toxicity per cycle: 5
  Fatigue grade 2, worse toxicity per cycle: 5
  Fatigue grade 3, worse toxicity per cycle: 1
  Nausea grade 1, worse toxicity per cycle: 8
  Nausea grade 2, worse toxicity per cycle: 7
  Plt grade 1, worse toxicity per cycle: 1
  Vomiting grade 1, worse toxicity per cycle: 3
  Vomiting grade 2, worse toxicity per cycle: 5
  Vomiting grade 3, worse toxicity per cycle: 2
  WBC grade 1, worse toxicity per cycle: 2
[1]; 120 mg day^−1, first cycle
  DLT, no. of patients: 1
  Diarrhoea grade 1, no. of patients: 1
  Diarrhoea grade 2, no. of patients: 2
  Diarrhoea grade 3, no. of patients: 1
  Fatigue grade 1, no. of patients: 3
  Fatigue grade 2, no. of patients: 3
  Nausea grade 1, no. of patients: 5
  Nausea grade 2, no. of patients: 3
  Vomiting grade 1, no. of patients: 1
  Vomiting grade 2, no. of patients: 2
  Vomiting grade 3, no. of patients: 2
  WBC grade 1, no. of patients: 1
[1]; 150 mg day^−1, all cycles
  ANC grade 4, worse toxicity per cycle: 1
  Diarrhoea grade 1, worse toxicity per cycle: 1
  Diarrhoea grade 2, worse toxicity per cycle: 1
  Diarrhoea grade 3, worse toxicity per cycle: 1
  Fatigue grade 2, worse toxicity per cycle: 4
  Nausea grade 1, worse toxicity per cycle: 2
  Nausea grade 2, worse toxicity per cycle: 2
  Plt grade 1, worse toxicity per cycle: 1
  Vomiting grade 1, worse toxicity per cycle: 1
  Vomiting grade 2, worse toxicity per cycle: 3
  WBC grade 2, worse toxicity per cycle: 1
[1]; 150 mg day^−1, first cycle
  ANC grade 4, no. of patients: 1
  DLT, no. of patients: 1
  Diarrhoea grade 1, no. of patients: 1
  Diarrhoea grade 2, no. of patients: 1
  Diarrhoea grade 3, no. of patients: 1
  Fatigue grade 2, no. of patients: 3
  Nausea grade 1, no. of patients: 1
  Nausea grade 2, no. of patients: 2
  Plt grade 1, no. of patients: 1
  Vomiting grade 2, no. of patients: 3
  WBC grade 2, no. of patients: 1
[1]; 180 mg day^−1, all cycles
  ANC grade 3, worse toxicity per cycle: 1
  Diarrhoea grade 1, worse toxicity per cycle: 1
  Diarrhoea grade 2, worse toxicity per cycle: 1
  Diarrhoea grade 4, worse toxicity per cycle: 1
  Fatigue grade 1, worse toxicity per cycle: 1
  Fatigue grade 2, worse toxicity per cycle: 1
  Fatigue grade 3, worse toxicity per cycle: 2
  Nausea grade 1, worse toxicity per cycle: 3
  Nausea grade 2, worse toxicity per cycle: 1
  Nausea grade 3, worse toxicity per cycle: 1
  Plt grade 1, worse toxicity per cycle: 2
  Vomiting grade 2, worse toxicity per cycle: 5
[1]; 180 mg day^−1, first cycle
  ANC grade 3, no. of patients: 1
  DLT, no. of patients: 1
  Diarrhoea grade 1, no. of patients: 1
  Diarrhoea grade 2, no. of patients: 1
  Fatigue grade 1, no. of patients: 1
  Fatigue grade 2, no. of patients: 1
  Fatigue grade 3, no. of patients: 1
  Nausea grade 1, no. of patients: 3
  Plt grade 1, no. of patients: 2
  Vomiting grade 2, no. of patients: 3
[1]; 180 mg day^−1 dose level
  patients in whom DLT was encountered: two of three patients
[1]; all cycles
  diarrhoea grade 1–2, share of cycles: 26%
  diarrhoea grade 3–4, share of cycles: 6%
[1]; all dose levels
  diarrhoea, median day of onset: 5 days
  diarrhoea, median duration: 4 days
  diarrhoea, range of day of onset: 1 to 15 days
  diarrhoea, range of duration: 1 to 14 days
  overall haematological toxicity: mild
  patients with grade 1 anaemia: seven patients
  patients with grade 2 anaemia: four patients
[1]; days 1–5 every 3 weeks
  recommended dose for further studies: 120 mg/day
[1]; dose level 180 mg
  nausea and vomiting, median duration: 6 days
  nausea and vomiting, range of duration: 1 to 20 days
[1]; during treatment
  patients who developed grade 1 alopecia: one patient
[1]; heavily pretreated patient, not complicated by fever
  patients with grade 4 neutropenia: one patient
[1]; in vivo
  treatment-related deaths: No treatment-related deaths
[1]; limited to grade 1 and 2
  patients with thrombocytopenia: three patients
[1]; [3]
  dose-limiting toxicities (DLT): diarrhoea and fatigue
  maximum tolerated dose (MTD): 180 mg/day
[1]; prior to treatment and following first drug administration
  abnormalities in ECG tracings: No significant abnormalities
[2]
  activity against xenografts in vivo: highly active
